# Data published in patent publication US8012967B2, “Minor groove binders” (University of Strathclyde, priority 2006, dated 2011).
# Where two headings read alike, the source gives them in different places.
# Tests used:
# [1] = test system: Aspergillus niger (IMI 1745); assay: MIC, Aspergillus niger; assay type: cell-based; details: Aspergillus niger, read-out: Minimum inhibitory concentrations (MICs), A. niger
# [2] = test system: clinical strains of S. aureus in the Scottish Clinical Isolates Collection; assay: MIC against collected clinical strains of S. aureus (BSAC03/04/05 (1)-(10)); assay type: cell-based, Staphylococcus aureus; details: for MIC: Staphylococcus aureus, read-out: Minimum inhibitory concentrations (MICs)
# Source text: In particular, minimum inhibitory concentrations (MICs) against microorganisms (e.g. S. Aureus, Streptococcus faecalis, Aspergillus niger, Candida albicans or Mycobacterium fortuitum) for compounds of the invention may be measured using procedures such as those described in A. J. Drummond and R. D. Waigh “The development of microbiological methods for phytochemical screening” Recent Res. Devel. Phytochem. 4, 143-152 (2000), the disclosures of which document are hereby incorporated by reference.
# Sample dilutions were typically prepared by dissolving the test sample (2 mg) in sterile water (10 mL) to provide a working concentration of 200 μg/ml. The test wells on each 96 well microtitre plate were initially inoculated with culture medium (100 μL) using Mueller-Hinton Broth for antibacterial assays and Sabouraud Broth for antifungal assays. A solution of each test sample (100 μL) was added to one row of each plate and a series of doubling dilutions made for successive rows. Incubation was at 37° C. for antibacterial assay and 25° C. for antifungal assay. […] From the observed pattern of colour, the MIC was determined. All tests included sterility and growth controls.
# BSAC03/04/05 (1)-(10) refer to collected clinical strains of S. aureus in the Scottish Clinical Isolates Collection.
# [3] = test system: Streptococcus faecalis (NCTC 775); assay: MIC, Streptococcus faecalis; assay type: cell-based; details: Enterococcus faecalis, NCTC775, read-out: Minimum inhibitory concentrations (MICs), St. faecalis
# Outline: (§1)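 Broth microdilution with doubling dilutions of compound in Mueller-Hinton Broth, incubated at 37° C. MIC read from the colour pattern in the wells. Sterility and growth controls included.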
# [4] = test system: Staphylococcus aureus Strain 1 (BSAC04(1)) (Clinical isolate from Glasgow Royal Infirmary); assay: MIC, Staphylococcus aureus Strain 1; assay type: cell-based; details: Staphylococcus aureus, read-out: Minimum inhibitory concentrations (MICs), S aureus 1
# Outline: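 Broth microdilution in Mueller-Hinton Broth: test sample at 200 μg/ml working concentration, serially doubled across rows, incubated at 37° C. MIC taken from the colour pattern, with sterility and growth controls included.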
# [5] = test system: Staphylococcus aureus Strain 2 (NCTC 6571); assay: MIC, Staphylococcus aureus Strain 2; assay type: cell-based; details: Staphylococcus aureus, NCTC6571, read-out: Minimum inhibitory concentrations (MICs), S. aureus 2
# Outline: as §1
# [6] = test system: Mycobacter fortuitum (NCTC 10394); assay: MIC, Mycobacter fortuitum; assay type: cell-based; details: Mycolicibacterium fortuitum, NCTC10394, read-out: Minimum inhibitory concentrations (MICs), M. fortuitum
# Method: The effects of compounds of the invention in relation to inhibiting the growth of various microorganisms was determined using methods known to those skilled in the art, for example in vitro methods as described in J. Med. Chem. 47, 2133-2156 (2004) and in vivo methods as described in J. Med. Microbiol. 46, 208-213 (1997), the disclosures of which documents are hereby incorporated by reference. In particular, minimum inhibitory concentrations (MICs) against microorganisms (e.g. S. Aureus, Streptococcus faecalis, Aspergillus niger, Candida albicans or Mycobacterium fortuitum) for compounds of the invention may be measured using procedures such as those described in A. J. Drummond and […] development of microbiological methods for phytochemical screening” Recent Res. Devel. […] The test wells on each 96 well microtitre plate were initially inoculated with culture medium (100 μL) using Mueller-Hinton Broth for antibacterial assays and Sabouraud Broth for antifungal assays. A solution of each test sample (100 μL) was added to one row of each plate and a series of doubling dilutions made for successive rows. Incubation was at 37° C. for antibacterial assay and 25° C. for antifungal assay. […] From the observed pattern of colour, the MIC was determined. All tests included sterility and growth controls.
# [7] = test system: Candida albicans (NCPF3179); assay: MIC, Candida albicans; assay type: cell-based; details: Candida albicans, NCPF3179, read-out: Minimum inhibitory concentrations (MICs), C. albicans
# [8] = value in parentheses, na = not active
structure (smiles),measurement,setting,value
"Cn1cc(NC(=O)c2cc(NC(=O)c3ccc(/C=C/c4cnc5ccccc5c4)cc3)cn2C)cc1C(=O)NCCN1CCOCC1 [Example 2, 1-Methyl-4-({[1-methyl-4-({4-[(E)-2-(3-quinolinyl)ethenyl]benzoyl}amino)-1H-pyrrol-2-yl]carbonyl}amino)-N-[2-(4-morpholinyl)ethyl]-1H-pyrrole-2-carboxamide]",MIC,[1]; [8],50 µg/mL
same,MIC,[1]; value outside parentheses,67 µM
same,MIC,[2]; S. aureus BSAC culture year 2003 number 1,0.25 µg/mL
same,MIC,[2]; S. aureus BSAC culture year 2003 number 2,0.25 µg/mL
same,MIC,[2]; S. aureus BSAC culture year 2003 number 3,0.25 µg/mL
same,MIC,[2]; S. aureus BSAC culture year 2003 number 4,0.12 µg/mL
same,MIC,[2]; S. aureus BSAC culture year 2003 number 5,0.12 µg/mL
same,MIC,[2]; S. aureus BSAC culture year 2003 number 6,0.12 µg/mL
same,MIC,[2]; S. aureus BSAC culture year 2003 number 7,0.12 µg/mL
same,MIC,[2]; S. aureus BSAC culture year 2003 number 8,0.06 µg/mL
same,MIC,[2]; S. aureus BSAC culture year 2003 number 9,0.25 µg/mL
same,MIC,[2]; S. aureus BSAC culture year 2003 number 10,0.25 µg/mL
same,MIC,[2]; S. aureus BSAC culture year 2004 number 1,0.25 µg/mL
same,MIC,[2]; S. aureus BSAC culture year 2004 number 2,0.5 µg/mL
same,MIC,[2]; S. aureus BSAC culture year 2004 number 3,0.5 µg/mL
same,MIC,[2]; S. aureus BSAC culture year 2004 number 4,0.25 µg/mL
same,MIC,[2]; S. aureus BSAC culture year 2004 number 5,0.12 µg/mL
same,MIC,[2]; S. aureus BSAC culture year 2004 number 6,0.25 µg/mL
same,MIC,[2]; S. aureus BSAC culture year 2004 number 7,0.12 µg/mL
same,MIC,[2]; S. aureus BSAC culture year 2004 number 8,0.25 µg/mL
same,MIC,[2]; S. aureus BSAC culture year 2004 number 9,0.12 µg/mL
same,MIC,[2]; S. aureus BSAC culture year 2004 number 10,0.12 µg/mL
same,MIC,[2]; S. aureus BSAC culture year 2005 number 1,0.25 µg/mL
same,MIC,[2]; S. aureus BSAC culture year 2005 number 2,1 µg/mL
same,MIC,[2]; S. aureus BSAC culture year 2005 number 3,0.12 µg/mL
same,MIC,[2]; S. aureus BSAC culture year 2005 number 4,0.25 µg/mL
same,MIC,[2]; S. aureus BSAC culture year 2005 number 5,0.25 µg/mL
same,MIC,[2]; S. aureus BSAC culture year 2005 number 6,0.12 µg/mL
same,MIC,[2]; S. aureus BSAC culture year 2005 number 7,0.25 µg/mL
same,MIC,[2]; S. aureus BSAC culture year 2005 number 8,0.5 µg/mL
same,MIC,[2]; S. aureus BSAC culture year 2005 number 9,0.25 µg/mL
same,MIC,[2]; S. aureus BSAC culture year 2005 number 10,0.12 µg/mL
same,microbicidal activity against a number of different strains of Staphylococcus aureus,[2]; result in words,displayed microbicidal activity
same,MIC,[3]; [8],25 µg/mL
same,MIC,[3]; value outside parentheses,33.5 µM
same,MIC,[4]; [8],0.12 µg/mL
same,MIC,[4]; value outside parentheses,0.16 µM
same,MIC,[5]; [8],0.25 µg/mL
same,MIC,[5]; value outside parentheses,0.32 µM
same,MIC,[6]; [8],50 µg/mL
same,MIC,[6]; value outside parentheses,67 µM
same,MIC,[7]; [8],25 µg/mL
same,MIC,[7]; value outside parentheses,33.5 µM
